The values below come from patent US12577206B2 (BRISTOL-MYERS SQUIBB COMPANY, priority 2020, dated 2026).

In assay [1] the target is T1, human FPR2 (Homo sapiens, UniProt P25090).
T1 sequence (P25090 1-351): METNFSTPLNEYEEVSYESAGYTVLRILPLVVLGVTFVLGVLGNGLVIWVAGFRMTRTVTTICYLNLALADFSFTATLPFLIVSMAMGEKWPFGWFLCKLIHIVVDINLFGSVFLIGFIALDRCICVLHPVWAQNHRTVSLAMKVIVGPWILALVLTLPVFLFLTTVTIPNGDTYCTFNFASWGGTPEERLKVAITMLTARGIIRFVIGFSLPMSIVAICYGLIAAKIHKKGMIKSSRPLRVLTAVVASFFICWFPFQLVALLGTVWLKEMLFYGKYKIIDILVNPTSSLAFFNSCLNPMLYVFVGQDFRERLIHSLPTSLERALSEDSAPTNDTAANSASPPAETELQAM
As to the kind of experiment: FPR2 cyclic adenosine monophosphate (cAMP) assay. To be noted: CHO cells overexpressing human FPR2; forskolin 5 μM; inhibition of cAMP production; HTRF; read-out: hFPR2 cAMP2 EC50. Type of assay: cell-based. In outline:
(§1)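 CHO cells overexpressing human FPR1 (4,000/well) or FPR2 (2,000/well) were incubated 30 min at room temperature with compound (0.020 nM to 100 μM, 1% DMSO), IBMX 200 μM, and forskolin at 10 μM (FPR1) or 5 μM (FPR2), all final. HTRF cAMP read-out; inhibition fitted by 4-parameter logistic equation.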
On the technique in general: Cyclic AMP is a second messenger, typically raised through Gs and lowered through Gi signalling.

In assay [2] the target is T2, human FPR1 (Homo sapiens, UniProt P21462).
T2 sequence (P21462 1-350): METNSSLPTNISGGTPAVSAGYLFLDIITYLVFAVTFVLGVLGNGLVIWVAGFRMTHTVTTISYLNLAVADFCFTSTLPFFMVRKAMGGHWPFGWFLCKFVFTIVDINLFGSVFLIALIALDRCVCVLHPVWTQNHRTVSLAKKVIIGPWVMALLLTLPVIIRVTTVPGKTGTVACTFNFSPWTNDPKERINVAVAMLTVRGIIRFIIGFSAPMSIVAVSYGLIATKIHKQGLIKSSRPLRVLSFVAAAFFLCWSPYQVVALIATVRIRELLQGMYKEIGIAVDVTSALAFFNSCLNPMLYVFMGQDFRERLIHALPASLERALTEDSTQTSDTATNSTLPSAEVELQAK
The assay can be described thus: FPR1 cyclic adenosine monophosphate (cAMP) assay. Type of assay: cell-based. The following applies: CHO cells overexpressing human FPR1; forskolin 10 μM; inhibition of cAMP production; HTRF; read-out: hFPR1 cAMP2 EC50. In outline:
as §1

By EC50 is commonly meant the concentration needed to bring the measured effect to its halfway point. `COc1cc(F)c(-c2c(NC(=O)c3ccc(OC(F)(F)F)cc3)c(=O)n(-c3cccc(OC)n3)n2C)c(F)c1` [Example 74, N-[5-(2,6-difluoro-4-methoxyphenyl)-2-(6-methoxypyridin-2-yl)-1-methyl-3-oxo-2,3-dihydro-1H-pyrazol-4-yl]-4-(trifluoromethoxy)benzamide]: the results for the EC50 in assay [1] and in assay [2] were 0.006 µM and 0.82 µM, respectively.

For `COc1cc(F)c(-c2c(NC(=O)c3ccc(OC(F)F)cc3)c(=O)n(-c3nc(N4CCC(C(N)=O)C4)ccc3C(F)(F)F)n2C)c(F)c1` (centres unmarked) [Example 303, 1-{6-[3-(2,6-difluoro-4-methoxyphenyl)-4-[4-(difluoromethoxy)benzamido]-2-methyl-5-oxo-2,5-dihydro-1H-pyrazol-1-yl]-5-(trifluoromethyl)pyridin-2-yl}pyrrolidine-3-carboxamide], the EC50 is 0.001 µM in assay [1] and more than 10 µM in assay [2].

Consider `COc1cc(O)c(-c2c(NC(=O)c3ccc(OC(F)F)cc3)c(=O)n(-c3nc(NCCO)ccc3C(F)(F)F)n2C)c(F)c1` [Example 230, 4-(difluoromethoxy)-N-[5-(2-fluoro-6-hydroxy-4-methoxyphenyl)-2-{6-[(2-hydroxyethyl)amino]-3-(trifluoromethyl)pyridin-2-yl}-1-methyl-3-oxo-2,3-dihydro-1H-pyrazol-4-yl]benzamide], for which the concentration for a half-maximal effect (EC50) in assay [1] is 0.01 µM; in assay [2], more than 10 µM.

On to `COc1cc(F)c(-c2c(NC(=O)c3ccc(OC(F)F)cc3)c(=O)n(-c3nc(N4C5CCC4CN(C)C5)ccc3C(F)(F)F)n2C)c(F)c1` [Example 137, N-[5-(2,6-difluoro-4-methoxyphenyl)-1-methyl-2-(6-{3-methyl-3,8-diazabicyclo[3.2.1]octan-8-yl}-3-(trifluoromethyl)pyridin-2-yl)-3-oxo-2,3-dihydro-1H-pyrazol-4-yl]-4-(difluoromethoxy)benzamide], for which the 50% effective concentration (EC50) was determined as 0.016 µM in assay [1] and 7.1 µM in assay [2].

Take `COc1cc(N2CC[C@H](O)C2)nc(-n2c(=O)c(NC(=O)c3ccc(OC(F)F)cc3)c(-c3c(F)cc(OC)cc3F)n2C)c1` [Example 97, N-[5-(2,6-difluoro-4-methoxyphenyl)-2-{6-[(3S)-3-hydroxypyrrolidin-1-yl]-4-methoxypyridin-2-yl}-1-methyl-3-oxo-2,3-dihydro-1H-pyrazol-4-yl]-4-(difluoromethoxy)benzamide]: the figures for the EC50 in assay [1] and in assay [2] were 0.003 µM and 3.4 µM, respectively.

`COc1cc(F)c(-c2c(NC(=O)c3ccc(OC(F)F)cc3)c(=O)n(-c3nc(N(CCO)CCO)ccc3C(F)(F)F)n2C)c(F)c1` [Example 139, N-(2-{6-[bis(2-hydroxyethyl)amino]-3-(trifluoromethyl)pyridin-2-yl}-5-(2,6-difluoro-4-methoxyphenyl)-1-methyl-3-oxo-2,3-dihydro-1H-pyrazol-4-yl)-4-(difluoromethoxy)benzamide]: the half-maximal effective concentration (EC50) in assay [1] is 0.003 µM; in assay [2], more than 10 µM.

Regarding `COc1cc(F)c(-c2c(NC(=O)c3ccc(OC(F)(F)F)cc3)c(=O)n(-c3c(F)cccc3F)n2C)c(F)c1` [Example 26, N-[5-(2,6-difluoro-4-methoxyphenyl)-2-(2,6-difluorophenyl)-1-methyl-3-oxo-2,3-dihydro-1H-pyrazol-4-yl]-4-(trifluoromethoxy)benzamide], the half-maximal effective concentration (EC50) in assay [1] is 0.009 µM; in assay [2], 1.1 µM.

For `COc1cc(F)c(-c2c(NC(=O)c3ccc(OC(F)F)cc3)c(=O)n(-c3nc(OCC(C)(C)O)ccc3C(F)(F)F)n2C)c(F)c1` [Example 288, N-[5-(2,6-difluoro-4-methoxyphenyl)-2-[6-(2-hydroxy-2-methylpropoxy)-3-(trifluoromethyl)pyridin-2-yl]-1-methyl-3-oxo-2,3-dihydro-1H-pyrazol-4-yl]-4-(difluoromethoxy)benzamide], the EC50 was 0.001 µM in assay [1] and more than 10 µM in assay [2].

On to `COc1ccc(-c2c(NC(=O)c3ccc(OC(F)F)cc3)c(=O)n(-c3ncccc3Cl)n2C)cc1` [Example 245, N-[2-(3-chloropyridin-2-yl)-5-(4-methoxyphenyl)-1-methyl-3-oxo-2,3-dihydro-1H-pyrazol-4-yl]-4-(difluoromethoxy)benzamide], for which the EC50 in assay [1] is 0.02 µM; in assay [2], 1.2 µM.

For `COc1cc(C2CCCN(C)C2)nc(-n2c(=O)c(NC(=O)c3ccc(OC(F)F)cc3)c(-c3c(F)cc(OC)cc3F)n2C)c1` (centres unmarked) [Example 343, N-(5-(2,6-Difluoro-4-methoxyphenyl)-2-(4-methoxy-6-(1-methylpiperidin-3-yl)pyridin-2-yl)-1-methyl-3-oxo-2,3-dihydro-1H-pyrazol-4-yl)-4-(difluoromethoxy)benzamide], the results for the EC50 in assay [1] and in assay [2] were 0.001 µM and more than 10 µM, respectively.

Take `COc1cc(F)c(-c2c(NC(=O)c3ccc(OC(F)F)cc3)c(=O)n(-c3ncccc3Br)n2C)c(F)c1` [Example 165, N-[2-(3-bromopyridin-2-yl)-5-(2,6-difluoro-4-methoxyphenyl)-1-methyl-3-oxo-2,3-dihydro-1H-pyrazol-4-yl]-4-(difluoromethoxy)benzamide]: the results for the half-maximal effective concentration (EC50) in assay [1] and in assay [2] were 0.015 µM and more than 10 µM, respectively.

`COc1cc(F)c(-c2c(NC(=O)c3ccc(OC(F)F)cc3)c(=O)n(-c3cccc(C)n3)n2C)c(F)c1` [Example 46, N-[5-(2,6-difluoro-4-methoxyphenyl)-1-methyl-2-(6-methylpyridin-2-yl)-3-oxo-2,3-dihydro-1H-pyrazol-4-yl]-4-(difluoromethoxy)benzamide]: the EC50 in assay [1] is 0.022 µM; in assay [2], more than 10 µM.

For `COc1cc(F)c(-c2c(NC(=O)c3ccc(OC(F)F)cc3)c(=O)n(-c3nc(NC4(CO)CC4)ccc3C(F)(F)F)n2C)c(F)c1` [Example 231, N-[5-(2,6-difluoro-4-methoxyphenyl)-2-(6-{[1-(hydroxymethyl)cyclopropyl]amino}-3-(trifluoromethyl)pyridin-2-yl)-1-methyl-3-oxo-2,3-dihydro-1H-pyrazol-4-yl]-4-(difluoromethoxy)benzamide], the results for the 50% effective concentration (EC50) in assay [1] and in assay [2] were 0.005 µM and more than 10 µM, respectively.

Turning to `COc1cc(F)c(-c2c(NC(=O)c3ccc(OC(F)F)cc3)c(=O)n(-c3ccc4ccccc4n3)n2C)c(F)c1` [Example 60, N-[5-(2,6-difluoro-4-methoxyphenyl)-1-methyl-3-oxo-2-(quinolin-2-yl)-2,3-dihydro-1H-pyrazol-4-yl]-4-(difluoromethoxy)benzamide], the EC50 was determined as 0.003 µM in assay [1] and 0.21 µM in assay [2].

With `CCOc1ccnc(-n2c(=O)c(NC(=O)c3ccc(OC(F)F)cc3)c(-c3c(F)cc(OC)cc3F)n2C)c1` [Example 78, N-[5-(2,6-difluoro-4-methoxyphenyl)-2-(4-ethoxypyridin-2-yl)-1-methyl-3-oxo-2,3-dihydro-1H-pyrazol-4-yl]-4-(difluoromethoxy)benzamide], the EC50 in assay [1] worked out at 0.01 µM; in assay [2] it was 9.5 µM.

Regarding `COc1cc(OCCC(C)(C)O)nc(-n2c(=O)c(NC(=O)c3ccc(OC(F)F)cc3)c(-c3c(F)cc(OC)cc3F)n2C)c1` [Example 379, N-(5-(2,6-Difluoro-4-methoxyphenyl)-2-(6-(3-hydroxy-3-methylbutoxy)-4-methoxypyridin-2-yl)-1-methyl-3-oxo-2,3-dihydro-1H-pyrazol-4-yl)-4-(difluoromethoxy)benzamide], the concentration giving a half-maximal response (EC50) in assay [1] is 0.007 µM; in assay [2], more than 10 µM.

`COc1cc(F)c(-c2c(NC(=O)c3ccc(OC(F)F)cc3)c(=O)n(-c3nc(NCC4(O)CC4)ccc3C(F)(F)F)n2C)c(F)c1` [Example 283, N-[5-(2,6-difluoro-4-methoxyphenyl)-2-(6-{[(1-hydroxycyclopropyl)methyl]amino}-3-(trifluoromethyl)pyridin-2-yl)-1-methyl-3-oxo-2,3-dihydro-1H-pyrazol-4-yl]-4-(difluoromethoxy)benzamide]: the EC50 in assay [1] was 0.001 µM; in assay [2] it was more than 10 µM.

`COc1cc(F)c(-c2c(NC(=O)c3ccc(C4CC4)cc3)c(=O)n(-c3ccc(C4CC4)cn3)n2C)c(F)c1` [Example 53, 4-cyclopropyl-N-[2-(5-cyclopropylpyridin-2-yl)-5-(2,6-difluoro-4-methoxyphenyl)-1-methyl-3-oxo-2,3-dihydro-1H-pyrazol-4-yl]benzamide]: the values for the concentration for a half-maximal effect (EC50) in assay [1] and in assay [2] were 0.059 µM and 0.61 µM, respectively.

As for `COc1cc(OCC(C)(CO)CO)nc(-n2c(=O)c(NC(=O)c3ccc(OC(F)F)cc3)c(-c3c(F)cc(OC)cc3F)n2C)c1` [Example 325, N-(5-(2,6-Difluoro-4-methoxyphenyl)-2-(6-(3-hydroxy-2-(hydroxymethyl)-2-methylpropoxy)-4-methoxypyridin-2-yl)-1-methyl-3-oxo-2,3-dihydro-1H-pyrazol-4-yl)-4-(difluoromethoxy)benzamide], the EC50 in assay [1] was 0.003 µM; in assay [2], more than 10 µM.
